In PMC10859961, “Ir(III) Half-Sandwich Photosensitizers with a π-Expansive Ligand for Efficient Anticancer Photodynamic Therapy” (Journal of Medicinal Chemistry, 2024):
Read-outs that look alike come from different tables or passages of the source.

How the values were obtained:
A549 cancer cells = assay: MTT cell viability assay, dark or photoactivated; format: cell-based, human; conditions: 4 h incubation, kept in the dark, viability after 48 h, MTT, read-out: IC50 dark
Experimental: Cells were cultured in 96-well plates at a density of 3000 (A549), 2500 (HeLa), or 5000 (PC-3, 1BR.3.G, and MRC-5) cells per well in cell culture medium and allowed to attach for 24 h. Solutions of the complexes at different concentrations were prepared for cell treatments. In all cases, the solid compounds were weighed using an analytical balance (Mettler Toledo AX205DR) to ensure precise measurements. Subsequently, 5 mM solutions were prepared using DMSO. Solutions were then diluted in water to reach a concentration of 1 mM and then, aliquots were taken and diluted in culture medium to obtain solutions ranging from 0 to 50 μM. […] The cells were treated with these solutions in dark conditions or following the photoactivation protocol (see below). 48 h later the treatments were removed, and cells were washed with phosphate-buffered saline (PBS).
Initially, the effect of the complexes on the cell viability was determined by the 3-(4,5-dimethylthiazol-2-yl)-2,5-diphenyltetrazolium bromide (MTT) assay.[147] The cells were incubated for 2 h with 100 μL of culture medium together with 10 μL of MTT (Sigma-Aldrich) at 0.5 mg/mL. After discarding the medium, DMSO was added to each well to dissolve the purple formazan crystals. The absorbance of each well was determined on a Multiscan Plate Reader (Synergy 4, Biotek, Winooski) at a wavelength of 570 nm. Cell viability was also assessed using the CyQUANT Direct Cell Proliferation Assay (Thermo Fisher Scientific), following the manufacturer’s instructions. Briefly, after the treatments, the cells were washed with PBS, and an equal volume of culture medium and CyQUANT mix was added to each well. The plates were then incubated for 1 h at 37 °C. Subsequently, the fluorescence intensity was bottom read using a Multiscan Plate Reader (Synergy 4, Biotek, Winooski) with excitation and emission filters of 485 and 528 nm, respectively. In both assays, at least three replicates were measured for each treatment. The concentration that reduces the cell viability by 50% (IC50) was established using the Gen5 software (BioTek). Three independent experiments were carried out for each compound. […] The phototoxicity index (PI = IC50,dark/IC50,light) was determined.
To assess the photodynamic activity of the complexes, cells were incubated with the complexes for 4 h to enable their intracellular accumulation. The cells were then irradiated with light with a wavelength of 460 nm (blue), 530 nm (green), or 655 nm (red) for 1 h using a LED system (LuxLight) with an effective power of 6.7 mW cm^–2, which provides a total light dose of 24.1 J cm^–2. The LED system was positioned at 25 mm from the cell culture plates.

[1] = pKa determination (absorbance vs pH); format: physicochemical; conditions: H2O/DMSO (98/2, v/v) solution; DMSO/H2O (2/98, v/v), Bu4NBF4 5 mM; piperidine ring; read-out: pKa
Experimental: Solutions of complexes 5 and 6 (2.00 × 10^–5 M) and Imepip ligand (2.00 × 10^–3 M) in H2O/DMSO (98/2, v/v) mixture with n-Bu4NBF4 (5 mM) were prepared. The presence of the salt ensured the conductivity of the media. Evolution of the peaks was studied at different pH by recording the absorbance spectrum. Aliquots of 10 μL of HCl (0.002–0.020 M) or NaOH (0.002–0.020 M) were added to a solution of 2.4 mL of complex to vary the pH. The absorbance versus pH plot enables us to determine one constant according to the equation from the Wilson and Lester method (eq 2):[146] [drawing 23] 2 where Aa is the absorbance for the acid species, Ab is the absorbance for the basic species, and Am is the absorbance of the mixture. The intersection obtained by representing log(Am – Aa)/(Ab – Am) versus pH provides the pKa.

[2] = degassed acetonitrile; cited from earlier work
[3] = H2O/DMSO (95:5); cited from earlier work
A549 = conditions: 425 nm, dose 1.2 J cm‐2, ref e (ACS Appl. Mater. Interfaces, 2017, 9, 42471; main text ref 24); cited from earlier work
HeLa = conditions: 425 nm, dose 1.2 J cm‐2, ref e (ACS Appl. Mater. Interfaces, 2017, 9, 42471; main text ref 24); cited from earlier work
SK‐MEL28 = conditions: visible light, dose 100 J cm‐2, ref m (Inorg. Chem. 2016, 55, 83); cited from earlier work
[4] = 1O2 quantum yield determination with DPBF; conditions: acetonitrile
Experimental: It was performed for complexes 1–8 in acetonitrile according to a relative procedure adapted from the literature[132]−[134] based on monitoring the oxidation of 1,3-diphenylisobenzofuran (DPBF, yellow) to 1,2-dibenzoylbenzene (colorless) photosensitized by the Ir(III) complexes. DPBF was used as an ^1O2 scavenger due to its fast reaction with this molecule. Fresh stock air-equilibrated solutions of photosensitizers (6.00 × 10^–6 M) and DPBF (1.50 × 10^–4 M) in acetonitrile were prepared. In a quartz cell, 1 mL of DPBF solution, 0.5 mL of complex solution, and 1.5 mL of acetonitrile were mixed to prepare a final solution with 5.00 × 10^–5 M DPBF and 1.00 × 10^–6 M complex. The final solutions were studied by recording UV–vis absorption spectra at room temperature in dark conditions (over a period of 6 min with time intervals of 2 min), under blue light irradiation (λexc = 470 nm, “Medusa” photoreactor) and under green light irradiation (λexc = 530 nm, “Medusa” photoreactor) for 5 s irradiation intervals during a total exposure period of 20 s. Absorption UV–vis spectra were recorded after every irradiation interval.
The consumption of DPBF probe was measured by monitoring its absorbance intensity decrease at 410 nm with irradiation time. ^1O2 generation quantum yield (ϕΔ) was calculated from eq 1 using Rose Bengal or [Ru(bpy)3]^2+ as reference for complexes with pbpz and pbpn ligands, respectively: [drawing 22] 1 where s and ref subscripts correspond to the complex and the reference, ϕΔ is the ^1O2 generation quantum yield (0.53 for Rose Bengal[135] and 0.56 for [Ru(bpy)3]Cl2[132] in degassed acetonitrile), S is the slope of the plots of the −ln(normalized absorbance) of DPBF at 410 nm vs the irradiation time, and F is the correction factor of absorption, which is given by F = 1–10^–O.D. (where O.D. is the optical density at 470 nm of solutions of complexes and references). The reproducibility of the results was confirmed by performing each experiment three times.
The stability of DPBF probe was studied in dark conditions and under light irradiation. In dark conditions and under green light irradiation the probe remains unaltered. However, under blue light irradiation, a photobleaching of DPBF was observed. Probe consumption was approximately 6.5% every 5 s. Therefore, a working interval of 20 s was chosen, where 75% of the probe remains stable. To calculate the ϕΔ, a correction factor was applied to the absorbance at 410 nm: a 6.5% of the previous value was added to each absorbance to counteract self-consumption of the probe (i.e., to the absorbance at 10 s, a 6.5% of the absorbance at 5 s was added).

CT26 = tested on: CT26; set-up: method as in p (Pozza et al., Inorg. Chem. 2023); conditions: 540 nm, dose 9 J cm‐2, ref p (Pozza et al., Inorg. Chem. 2023); cited from earlier work
HT29 = tested on: HT29; set-up: method as in p (Pozza et al., Inorg. Chem. 2023); conditions: 540 nm, dose 9 J cm‐2, ref p (Pozza et al., Inorg. Chem. 2023); cited from earlier work
RPE‐1 = tested on: RPE‐1; set-up: method as in p (Pozza et al., Inorg. Chem. 2023); conditions: cited from earlier work
[5] = 540 nm, dose 9 J cm‐2, ref p (Pozza et al., Inorg. Chem. 2023)
[6] = 620 nm, dose 6.7 J cm‐2, ref p (Pozza et al., Inorg. Chem. 2023)

Molecule `c1cn(CCN2CCCCC2)cn1` [(N-ethylpiperidyl)imidazole, reference compound] has an IC50 (A549 cancer cells; A549) of 68 ± 2 µM, an IC50 (A549 cancer cells; Homo sapiens, A549, A549) greater than 50 µM and a pKa [1] of 7.1.
In the case of `O=C([O-])c1c(Cl)c(Cl)c(Cl)c(Cl)c1-c1c2cc(I)c(=O)c(I)c-2oc2c(I)c([O-])c(I)cc12.[Na+].[Na+]` [Rose Bengal], the “1O2 generation quantum yield (ϕΔ) of reference” value [2] is given as 0.53 and the “1O2 generation quantum yield (ϕΔ) of reference” value [3] is given as 0.76.
In the case of `F[P-](F)(F)(F)(F)F.[Ir+3].[c-]1ccccc1-c1ccccn1.[c-]1ccccc1-c1ccccn1.c1ccc2cc3[nH]c(-c4ccc5ccccc5n4)nc3cc2c1` [[Ir(N^∧N)(ppy)2]PF6], the PI/Dose (A549) is listed as 268 and the PI/Dose (HeLa) is listed as 397.
For `[Ru+2].[c-]1cccc2c1c1ncccc1c1nc3cc4ccccc4cc3nc21.c1ccc(-c2ccccn2)nc1.c1ccc(-c2ccccn2)nc1` [[Ru(bpy)2(pbpn)]+], the PI (SK‐MEL28) is listed as greater than 1400 and the PI/Dose (SK‐MEL28) is listed as greater than 140.
For `[Cl][Ru][Cl].c1ccc(-c2ccccn2)nc1.c1ccc(-c2ccccn2)nc1.c1ccc(-c2ccccn2)nc1` [[Ru(bpy)3]Cl2, reference compound], the “Slope (S) of ‐ln(normalized Abs) vs time, photooxidation of DPBF” value ([4]; λir = 470 nm) is given as 0.0535, the “Slope (S) of ‐ln(normalized Abs) vs time, photooxidation of DPBF” value ([4]; λir = 530 nm) is given as 0.0057 and the “1O2 generation quantum yield (ϕΔ) of reference” value [2] is given as 0.56. For the same molecule, the “1O2 generation quantum yield (ϕΔ) of reference” value [3] was 0.18.
In the case of `[Ru+2].c1ccc2cc3nc4c5cccnc5c5ncccc5c4nc3cc2c1.c1ccc2cc3nc4c5cccnc5c5ncccc5c4nc3cc2c1.c1cnc2c(c1)ccc1cccnc12` [[Ru(dppn)2(phen)]2+], the PI (CT26) is given as 1666, the PI/Dose (CT26) is given as 185.1 and the PI (HT29) is given as 556. The PI/Dose (HT29) was 61.8, the PI (RPE‐1; [5]) was 556 and the PI/Dose (RPE‐1; [5]) was 61.8. For the same molecule, the PI (RPE‐1; [6]) was 333 and the PI/Dose (RPE‐1; [6]) was 49.7.
